Experimental data: patent US11524938B2, “Aromatic sulfonamide derivatives” (Bayer Pharma Aktiengesellschaft, priority 2016, dated 2022)
Several values for one entry are separate records, joined by “and”; a condition that tells them apart may be missing. Equal entries are not always repeated.

Target: T1, endogenous P2X4 channels (Homo sapiens, UniProt Q99571)
T1 construct: measure calcium influx through endogenous P2X4 channels into primary human monocytes
T1 sequence (Q99571 1-388): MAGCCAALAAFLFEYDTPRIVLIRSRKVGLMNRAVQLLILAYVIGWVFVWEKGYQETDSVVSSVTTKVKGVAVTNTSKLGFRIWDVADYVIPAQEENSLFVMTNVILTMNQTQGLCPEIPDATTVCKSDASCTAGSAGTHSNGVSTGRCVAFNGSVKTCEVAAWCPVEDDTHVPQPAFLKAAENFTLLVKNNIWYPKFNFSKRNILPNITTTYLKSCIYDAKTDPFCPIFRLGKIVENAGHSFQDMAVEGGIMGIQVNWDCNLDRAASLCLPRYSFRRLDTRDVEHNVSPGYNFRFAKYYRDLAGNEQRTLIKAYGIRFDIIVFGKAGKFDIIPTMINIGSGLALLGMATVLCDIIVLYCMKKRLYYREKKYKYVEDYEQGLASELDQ
Experiment: Human Monocyte P2X4 Assay (FLIPR)
Type: cell-based
Conditions: primary human monocytes, 3 μM BzATP, one value per donor
Experimental: The principle of the assay is to measure calcium influx through endogenous P2X4 channels into primary human monocytes, following activation by 2′,3′-O-(4-benzoyl-benzoyl)-ATP (Bz-ATP). Intracellular calcium concentration changes were measured with a Flipr® (Molecular Devices) device using a calcium sensitive dye (Fluo-8). In primary monocytes P2X4 is located at the lysosome membrane, therefore exocytosis has to be triggered to expose P2X4 at the cellular membrane.
Human peripheral blood mononuclear cells (PBMCs) from anticoagulated blood (blood cells, BC) were isolated via density gradient centrifugation. Whole blood was diluted 1:3 with PBS. Samples of 30 mL were layered carefully on top of 15 mL Biocoll (BIOCHROM) in 50 mL centrifuge tubes (Falcon). Tubes were centrifuged at 914×g for 25 min at RT without brake. The PBMC layer was removed with a 10 mL pipette and transferred into tubes with ice-cold PBS in a total volume of 50 mL. Cells were washed twice by pelleting at 300×g at 4° C., for 10 min and for 5 min respectively. PBMCs were re-suspended in 10 mL medium (X-vivo, Biozym Scientific) and counted in a Neubauer chamber.
Monocytes were isolated by negative selection using the Monocyte isolation kit II from Miltenyi (#130-091-153) according to the instructions. Isolation should be done fast and cells and solutions should be kept on ice at any time. PBMCs in batches of 10 exp8 cells were pelleted (300×g, 10 min) and re-suspended with 300 μL MACS buffer in a 50 mL Falcon tube. FcR Blocking reagent (100 μl) and Biotin-Ab (100 μl) were added, mixed and incubated on ice for 10 min. MACS buffer (300 μL) and anti-Biotin Micro-beads (100 μL) were added, mixed and incubated on ice for 15 min. Cells were washed by pelleting (300×g for 10 min) and re-suspended in 500 μL MACS buffer. For each batch one separation column was placed in the MACS separator and rinsed with 3 mL MACS buffer. The cell suspension was added to the column, followed by 3×3 mL MACS buffer for washing, and the eluent containing the monocytes was collected. Cells were pelleted (300×g for 10 min), re-suspended in X-vivo medium and counted. Monocytes were seeded into fibronectin-coated micro-plates (384-well, black, flat transparent bottom; Corning #3848) at a density of 30,000 cells/well in 50 μL, and cultivated over night (37° C., 5% CO2).
Test substances were dissolved in 100% DMSO at a stock concentration of 10 mM and stored at −20° C. in aliquots. Serial dilutions (2×) were prepared in DMSO and diluted 500× with assay buffer to generate the antagonist plate. In the Flipr measurement, 10 μL per well were transferred (4× dilution) and a final top concentrations of 5 μM and 0.05% DMSO were obtained in the assay. Agonist BzATP was stored at 10 mM in aliquots and diluted to an intermediate concentration of 15 μM to generate the agonist plate. In the Flipr measurement, 10 μL per well were transferred (5× dilution) so that a final assay concentration of 3 μM was obtained.
For the experiment, the medium of the cell plate was discarded manually and 70 μL/well loading buffer was added and incubated for 1 h (37° C., 5% CO2). Loading buffer contained HBSS (w/o calcium/magnesium), 10 mM Hepes pH 7.4, 5 μM Fluo-8 (AM) (Tebu-bio) and 50 mM methylamine (Sigma) to trigger exocytosis. Loading buffer was discarded manually and 30 μL/well low-calcium assay buffer (5 mM KCl, 145 mM NaCl, 0.5 mM CaCl2, 13 mM glucose, 10 mM Hepes pH 7.4) was added. The antagonist plate was transferred (10 μL/well) and after 15 min at RT the agonist plate (10 μL/well) was transferred.
Agonist addition was recorded for 240 seconds after a 10 second baseline. For analysis, a baseline correction was applied, and the maximum of the curve was extracted. Data were normalized towards 0% inhibition (signal at 3 μM BzATP) and 100% inhibition (absence of BzATP stimulation) and fitted with a four-parameter sigmoidal inhibition curve using Prism GraphPad to obtain IC50 values.

N#Cc1cnn(-c2ccc(NC(=O)Cc3ccccc3Cl)cc2S(N)(=O)=O)c1 [Example 39, 2-(2-Chlorophenyl)-N-[4-(4-cyano-1H-pyrazol-1-yl)-3-sulfamoylphenyl]acetamide]
Human P2X4 Monocytes (FLIPR Assay) Efficacy for different donors: 81% and 78%
